Results: patent publication US20100292150A1, “Treatment of Menorrhagia with Aromatase Inhibitor” (MEDITRINA PHARMACEUTICALS, INC., priority 2007, published 2010)

Columns and labels:
Women with menorrhagia [1] = assay: Daily menstrual bleeding severity score in women receiving anastrozole for 26 days vs placebo; format: in vivo
Text: (§1) Women with menorrhagia were enrolled in the study and divided into two groups—one as Treatment Group and the other as Control Group. Administering of anastrozole to the women in the Treatment Group started on the second day of the menstrual cycle and lasted for 26 days. In some cases, the administration started on the third day due to site scheduling limitations. Conversely, the women in the Control Group received placebo during the same period. Data on the mean menstrual bleeding severity score were recorded on a daily basis according to the following categories of vaginal bleeding: 0=none; 1=spotting; 2=mild bleeding; 3=moderate bleeding; and 4=heavy bleeding.
In the Control Group, within 6 days, the average score was down to about zero. Over the next 20 days, the fluctuations in menstrual bleeding severity would also be considered typical in that some women experience “breakthrough bleeding” which was reflected in the deviation from zero that would be expected in models of normal cycles, but was not reflected in reality. This was particularly notable during the second half of the menstrual cycle.
The observation above was contrasted by women who received anastrozole for 26 consecutive days (Treatment Group). […]

Women with menorrhagia [2] = assay: Safety profile of anastrozole compared to placebo in the same study; format: in vivo; conditions: 26 days of anastrozole
Text: as §1
The observation above was contrasted by women who received anastrozole for 26 consecutive days (Treatment Group). On Study Day 1, which corresponds to Cycle Day 2 as with the Control Group, the women were administered 20 mg of anastrozole in the clinic office and then […] for the remaining 25 days.

[3] = system: healthy premenopausal women; conditions: 5, 10, 15 and 20 mg, single and multiple dose; 26 healthy premenopausal women; cited from earlier work
[4] = marketed in the US for long-term chronic breast cancer therapy (five years and beyond); cited from earlier work

CC(C)(C#N)c1cc(Cn2cncn2)cc(C(C)(C)C#N)c1 [anastrozole]
reported bleeding over the remaining days of treatment (Women with menorrhagia [1]; 20 mg on Study Day 1, then 10 mg/day for remaining 25 days, contrasted with placebo): no bleeding or spotting reported until the very end of the cycle
mean bleeding severity at the start of the treatment interval (Women with menorrhagia [1]; score 0=none to 4=heavy bleeding, Study Day 1 = Cycle Day 2, 20 mg anastrozole on day 1): ~3
safety liabilities (Women with menorrhagia [2]): does not appear to have any significant safety liabilities
adverse events [3]: no severe, serious, or otherwise significant adverse events
general safety [4]: generally accepted as safe drugs

C=C1C[C@@H]2[C@H](CC[C@]3(C)C(=O)CC[C@@H]23)[C@@]2(C)C=CC(=O)C=C12 [exemestane]
general safety [4]: generally accepted as safe drugs

N#Cc1ccc(C(c2ccc(C#N)cc2)n2cncn2)cc1 [letrozole]
general safety [4]: generally accepted as safe drugs
